{"source": "patent US20110104713A1", "about": "“PRODUCTS AND PROCESSES FOR MODULATING PEPTIDE-PEPTIDE BINDING DOMAIN INTERACTIONS” (priority 2002, published 2011)", "assay_type_in_all_cases": "binding", "key": {"[1]": {"target": "T1, GST-PTIP BRCT domains (residues 550-757) (Homo sapiens, UniProt Q6ZW49)", "T1 construct": "15 μM GST-PTIP BRCT domains (residues 550-757); made in house; host or cells: E. coli DH5a", "T1 sequence (Q6ZW49 862-1069)": "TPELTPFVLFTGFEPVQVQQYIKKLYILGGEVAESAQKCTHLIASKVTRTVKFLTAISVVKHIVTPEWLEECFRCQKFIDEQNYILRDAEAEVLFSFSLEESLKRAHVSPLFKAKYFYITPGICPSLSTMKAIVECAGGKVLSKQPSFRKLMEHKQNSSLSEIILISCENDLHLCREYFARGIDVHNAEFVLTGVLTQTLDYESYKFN", "experiment": "Isothermal titration calorimetry of peptides with PTIP tandem BRCT domains", "details": "for Kd: ITC, PTIP (BRCT)2 domain", "text": "(§1) For deletion mapping of the PTIP and BRCA1 BRCT phospho-binding region and for expression of MDC 1, 53BP1 and Rad9 (FIG. 17-18), fragments were generated by PCR for in vitro transcription/translation and cloned into a pcDNA3.1 expression vector (Invitrogen, San Diego, Calif.). For production of recombinant GST-PTIP BRCT domains and GSTBRCA1 BRCT domains, residues 550-757 of PTIP and residues 1634-1863 of BRCA1 were ligated into the EcoRI and NotI sites of pGEX-4T1 (Pharmacia, Peapack, N.J.) and subsequently transformed into DH5a E. Coli. Protein induction occurred at 37° C. for 4 hours or at 25° C. for 16 hours in the presence of 0.4 mM IPTG. For peptide filter blot analysis and measurements of peptide binding affinity by ITC, GSTPTIP BRCT domains (residues 550-757) and GST-BRCA1 BRCT domains (residues 1634-1863) were isolated from bacterial lysates using glutathione agarose, eluted with 40 mM glutathione, and dialyzed into 50 mM Tris/HCl (pH 8.1), 300 mM NaCl. The GFP-PTIP constructs FL (residues 1-757), !BRCT (residues 1-550), or (BRCT)2 (residues 550-757) were cloned into the EcoRI and SalI sites of the pEGFP-C2 (BD Biosciences Clontech Franklin Lakes, N.J.) expression vector.\n(§2) Peptides were synthesized by solid phase technique with three C-terminal lysines to enhance solubility. The peptides were then purified by reverse phase HPLC following deprotection and confirmed by MALDI-TOF mass spectrometry. Calorimetry measurements were performed using a VP-ITC microcalorimeter (MicroCal Inc., Studio City, Calif.). Experiments involved serial 10 μL injections of peptide solutions (20 μM-150 μM) into a sample cell containing 15 μM GST-PTIP BRCT domains (residues 550-757) or 15 μM GST-BRCA1 BRCT domains (residues 1634-1863) in 50 mM Tris/HCl (pH 8.1), 300 mM NaCl. Twenty injections were performed with 240 second intervals between injections and a reference power of 25 μCal/s. Binding isotherms were plotted and analyzed using ORIGIN Software (MicroCal Inc. Studio City, Calif.)."}, "[2]": {"target": "T2, GST-BRCA1 BRCT domains (residues 1634-1863) (Homo sapiens, UniProt P38398)", "T2 construct": "15 μM GST-BRCA1 BRCT domains (residues 1634-1863); made in house; host or cells: E. coli DH5a", "T2 sequence (P38398 1634-1863)": "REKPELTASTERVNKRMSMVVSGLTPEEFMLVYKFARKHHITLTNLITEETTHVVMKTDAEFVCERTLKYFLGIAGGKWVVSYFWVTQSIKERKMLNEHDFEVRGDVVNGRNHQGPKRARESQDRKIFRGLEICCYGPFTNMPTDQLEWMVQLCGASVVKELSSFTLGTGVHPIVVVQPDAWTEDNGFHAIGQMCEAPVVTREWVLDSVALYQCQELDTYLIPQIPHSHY", "experiment": "Isothermal titration calorimetry of peptides with BRCA1 tandem BRCT domains", "text": "as §1, §2"}, "[3]": {"target": "T3, Plk-1 PBD (residues 326-603) (Homo sapiens, UniProt P53350)", "T3 construct": "sample cell containing 15 μM Plk-1 PBD (residues 326-603); GST (N, cleaved yes); made in house; host or cells: E. coli BL21", "T3 sequence (P53350 326-603)": "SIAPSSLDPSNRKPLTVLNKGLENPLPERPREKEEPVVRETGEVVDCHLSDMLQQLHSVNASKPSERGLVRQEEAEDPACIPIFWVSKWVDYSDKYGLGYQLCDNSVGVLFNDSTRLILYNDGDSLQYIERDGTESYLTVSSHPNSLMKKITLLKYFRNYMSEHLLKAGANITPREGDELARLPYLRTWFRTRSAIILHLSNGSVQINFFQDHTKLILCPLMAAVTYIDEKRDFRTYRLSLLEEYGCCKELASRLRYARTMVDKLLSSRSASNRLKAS", "experiment": "Isothermal titration calorimetry of peptides with Plk-1 PBD", "details": "for peptide binding to Plk-1 PBD by ITC (in words): no detectable binding for a Plk1 PBD concentration of at least 150 μM", "experimental": "For deletion mapping of the PBD, C-terminal fragments of Plk-1 were generated by PCR and cloned into the EcoRI and XhoI sites of pcDNA3.1 (Invitrogen). For production of recombinant PBD as a GST fusion in bacteria, the 326-603 fragment of Plk-1 was ligated into the EcoRI and XhoI sites of pGEX-4T (Pharmacia), transformed into BL21, and induced in late log-phase cells at 37° C. for 3.5 hours in the presence of 0.4 mM IPTG. For measurements of peptide binding affinity by ITC, GST-Plk-1 (326-603) was isolated from bacterial lysates using glutathione agarose, cleaved from GST using thrombin (10 U/mL), and purified by anion exchange chromatography (Q Sepharose HP, Pharmacia).\nPeptides were synthesized by solid phase technique with two C-terminal lysines to enhance solubility, purified by reverse phase HPLC following deprotection, and confirmed by MALDI-TOF 9 Matrix-assisted laser desorption/ionisation-time of flight mass spectrometry. Some peptides contained an additional tyrosine residue to facilitate concentration determination by optical absorbance. calorimetry measurements were performed using a VP-ITC microcalorimeter (MicroCal Inc., Studio City, Calif.). Experiments involved 10 μL injections of peptide solutions (150 μM-180 μM) into a sample cell containing 15 μM Plk-1 PBD (residues 326-603) in 50 mM Tris/HCl (pH 8.1), 200 mM NaCl, 2 mM TCEP. Thirty injections were performed with a spacing of 240 s and a reference power of 25 μCal/s. Binding isotherms were plotted and analyzed using Origin Software (MicroCal Inc. Studio City, Calif.).\nPeptides were synthesized by solid phase technique with two C-terminal lysines to enhance solubility. Some peptides contained an additional tyrosine residue to facilitate concentration determination by optical absorbance. Isothermal titration calorimetry was performed using a VP-ITC microcalorimeter (MicroCal Inc. Studio City, Calif.) by titration of 15-40 μM solutions of PBD proteins with 30×10 μl injections of […] peptide in a starting volume of 1.4-2.0 ml. Binding isotherms were plotted and analyzed using Origin Software (MicroCal Inc. Studio City, Calif.). Binding of in vitro translated Plk1 PBD (wild type and mutants) to bead-immobilized pTP and TP peptide libraries was performed as described previously (Elia et al., Science 299:1228-1231, 2003). pTP and TP indicate the peptide libraries biotin-Z-Gly-Z-Gly-Gly-Ala-X-X-B-X-pThr-Pro-X-X-X-X-Ala-Lys-Lys-Lys SEQ ID NO: 30 biotin-Z-Gly-Z-Gly-Gly-Ala-X-X-B-X-Thr-Pro-X-X-X-X-Ala-Lys-Lys-Lys SEQ ID NO: 31, respectively, where pThr is phosphothreonine, Z is aminohexanoic acid, X denotes all amino acids except Cys, and B is a biased mixture of the amino acids P, L, I, V, F, M, W."}, "[4]": {"target": "T4, GST-Plk-1 PBD (residues 326-603) interaction with mitotic phosphoproteins (Homo sapiens, UniProt P53350)", "T4 construct": "GST-Plk-1 (residues 326-603) was immobilized on glutathionine beads; made in house; host or cells: E. coli BL21", "T4 sequence (P53350 326-603)": "as above", "experiment": "Peptide competition of GST-Plk-1 PBD pull-down of MPM-2 mitotic phosphoproteins from HeLa lysates", "details": "320 μM peptide, 45 minutes at 4° C.; nocodazole-arrested HeLa lysates; listed as 7V", "experimental": "HeLa cells were arrested in interphase or G2/M by treatment with aphidicolin (5 μg/mL) or nocodazole (50 ng/mL), respectively, for 16 hours. Cells were lysed in 25 mM Tris/HCl (pH 7.5) containing 125 mM NaCl, 0.5% NP-40, 5 mM EDTA, 2 mM DTT, 4 μg/mL pepstatin, 4 μg/mL aprotinin, 4 μg/mL leupeptin, 1 mM Na3VO4, 50 mM NaF, and […] microcystin, and 150 μgs of lysate incubated with 10 μL of glutathione agarose beads containing 2-5 μg of GST-Plk-1 (residues 326-603), GST-Pin1, or GST for 30 minutes at 4° C. Beads were washed four times with lysis buffer. Precipitated proteins were eluted in sample buffer and detected by blotting with monoclonal MPM-2 (Upstate Biotechnology, Inc.) or polyclonal anti-Cdc25C (Santa Cruz Biotechnology, Santa Cruz, Calif.). For peptide competition experiments, GST-Plk-1 (residues 326-603) was immobilized on glutathionine beads and preincubated with 320 μM of PoloBoxtide-optimal, −8T, or −7V for 45 minutes at 4° C. For binding experiments involving mutant cdc25C, HeLa cells were transfected with wild-type and mutated versions of HA-tagged Cdc25C in pECE using Superfect (Qiagen, Valencia, Calif.). Nocodazole (50 ng/mL) was added seventeen hours after transfection and cells incubated for an additional 14 hours to arrest them in G2/M. Point mutations of Cdc25C were constructed using the QuickChange site-directed mutagenesis system (Stratagene) and verified by DNA sequencing."}}, "note": "Non-standard residues stand in square brackets, D forms with d. Residues, ends and D or L forms follow the SMILES beside them. No end group written: not given here. pT = C[C@@H](OP(=O)(O)O)[C@H](N)C(=O)O; pS = N[C@@H](COP(=O)(O)O)C(=O)O", "data": [{"molecule": "CC[C@H](C)[C@H](NC(=O)[C@H](CC(=O)O)NC(=O)[C@H](Cc1ccc(O)cc1)NC(=O)[C@H](C)NC(=O)[C@H](C)NC(=O)CN)C(=O)N[C@@H](COP(=O)(O)O)C(=O)N[C@@H](CCC(N)=O)C(=O)N[C@H](C(=O)N[C@@H](Cc1ccccc1)C(=O)N1CCC[C@H]1C(=O)N[C@@H](Cc1ccccc1)C(=O)N[C@@H](C)C(=O)N[C@@H](CCCCN)C(=O)N[C@@H](CCCCN)C(=O)N[C@@H](CCCCN)C(=O)O)C(C)C", "note": "[BRCTtide-7pS] (H-GAAYDI[pS]QVFPFAKKK-OH; N-terminus and C-terminus assumed)", "values": [{"measurement": "Kd", "setting": "[1]", "result": 0.28, "unit": "µM"}, {"measurement": "Kd", "setting": "[2]; ITC, BRCT domains of BRCA1, text, read-out: dissociation constant", "result": 400, "unit": "nM"}]}, {"molecule": "CC[C@H](C)[C@H](NC(=O)[C@H](CC(=O)O)NC(=O)[C@H](Cc1ccc(O)cc1)NC(=O)[C@H](C)NC(=O)[C@H](C)NC(=O)CN)C(=O)N[C@H](C(=O)N[C@@H](CCC(N)=O)C(=O)N[C@H](C(=O)N[C@@H](Cc1ccccc1)C(=O)N1CCC[C@H]1C(=O)N[C@@H](Cc1ccccc1)C(=O)N[C@@H](C)C(=O)N[C@@H](CCCCN)C(=O)N[C@@H](CCCCN)C(=O)N[C@@H](CCCCN)C(=O)O)C(C)C)[C@@H](C)OP(=O)(O)O", "note": "[BRCTtide-7pT] (H-GAAYDI[pT]QVFPFAKKK-OH; N-terminus and C-terminus assumed)", "values": [{"measurement": "Kd", "setting": "[1]", "result": 14.3, "unit": "µM"}]}, {"molecule": "CSCC[C@H](NC(=O)[C@@H]1CCCN1C(=O)CNC(=O)[C@H](C)NC(=O)[C@@H](N)CCSC)C(=O)N[C@@H](CCC(N)=O)C(=O)N[C@@H](CO)C(=O)N[C@H](C(=O)N1CCC[C@H]1C(=O)N[C@@H](CC(C)C)C(=O)N[C@@H](CC(N)=O)C(=O)NCC(=O)N[C@@H](C)C(=O)N[C@@H](CCCCN)C(=O)N[C@@H](CCCCN)C(=O)O)[C@@H](C)OP(=O)(O)O", "note": "[PoloBoxtide-optimal, MAGPMQ-S-pT-P-LNGAKK] (H-MAGPMQS[pT]PLNGAKK-OH)", "values": [{"measurement": "Kd", "setting": "[3]", "result": 280, "unit": "nM"}]}, {"molecule": "GAAYDISQVFPFAKKK [BRCTtide-7S]", "values": [{"measurement": "Kd (N.D.B.)", "setting": "[1]; PTIP, N.D.B = no detectable binding by ITC, tandem BRCT domain concentration of at least 150 μM", "result": "N.D.B."}, {"measurement": "Kd (N.D.B.)", "setting": "[2]; BRCA1, N.D.B = no detectable binding by ITC, tandem BRCT domain concentration of at least 150 μM", "result": "N.D.B."}]}, {"molecule": "PoloBoxtide-7A: mutated version of the optimal peptide, Ala at pT-1 (SEQ ID NO:68) (MAGPMQA[pT]PLNGAYKK)", "values": [{"measurement": "peptide binding to Plk-1 PBD by ITC (in words)", "setting": "[3]", "result": "abolish Plk1 PBD/peptide binding"}]}, {"molecule": "PoloBoxtide-7C: mutated version of the optimal peptide, Cys at pT-1 (SEQ ID NO:70) (MAGPMQC[pT]PLNGAYKK)", "values": [{"measurement": "peptide binding to Plk-1 PBD by ITC (in words)", "setting": "[3]", "result": "abolish Plk1 PBD/peptide binding"}]}, {"molecule": "PoloBoxtide-7G: mutated version of the optimal peptide, Gly at pT-1 (SEQ ID NO:69) (MAGPMQG[pT]PLNGAYKK)", "values": [{"measurement": "peptide binding to Plk-1 PBD by ITC (in words)", "setting": "[3]", "result": "abolish Plk1 PBD/peptide binding"}]}, {"molecule": "PoloBoxtide-7T: mutated version of the optimal peptide, Thr at pT-1 (SEQ ID NO:71) (MAGPMQT[pT]PLNGAYKK)", "values": [{"measurement": "peptide binding to Plk-1 PBD by ITC (in words)", "setting": "[3]", "result": "abolish Plk1 PBD/peptide binding"}]}, {"molecule": "PoloBoxtide-7V: phosphopeptide whose serine at pThr-1 was mutated to valine (SEQ ID NO:67) (MAGPMQV[pT]PLNGAKK)", "values": [{"measurement": "effect of peptide pre-incubation on GST-Plk-1 PBD binding of MPM-2 epitopes", "setting": "[4]", "result": "had no effect"}]}]}
